Consider two molecules from patent US20140113904A1, “TREATMENT OF CANCER WITH TOR KINASE INHIBITORS” (SIGNAL PHARMACEUTICALS, LLC, priority 2012, published 2014).

Molecules are shown by their SMILES. Read-outs that look alike come from different tables or passages of the source.

Series [1] can be described thus: Body weight in Compound 1 PC3 xenograft efficacy studies. In kind it is in vivo, SCID mice. The procedure: The BID dose groups were dosed with a 10-hour separation between the morning and evening doses. […] At the end of each study, plasma and/or tumor samples were collected.
Initial body weights were recorded prior to the initiation of treatment using a digital scale. The percent body weight change during the course of the study was calculated using initial body weight measurements. Body weights of each animal were measured twice a week at the same time that tumor measurements were taken. Body weights were measured more frequently if significant decreases were noted during the course of the study.

For series [2], the system named is PC3 tumors. Briefly: Apoptosis TUNEL assay in PC3 tumors (Compound 1, rapamycin). In kind it is in vivo, SCID mice. The settings on record: 25 mg/kg oral QD for 6 days, 2 hours after last dose. On the procedure: Two hours after the last dose of either vehicle, Compound 1, or rapamycin, the mice were euthanized and the tumors were dissected. The tumors were snap frozen in liquid nitrogen and processed for immunohistochemistry (IHC) and TUNEL.
To detect the apoptotic cells, fluorescence in situ cell death detection kit (Roche Biosciences) was used. Five to ten micron thick cryostat sections were fixed in 4% paraformaldehyde for 15 minutes at room temperature, washed, permeabilized with 0.3% triton X-100 and 0.1% sodium citrate in PBS for 10 minutes. Sections were then washed in PBS and incubated with a labeling solution containing TdT enzyme for 1 hour at 37° C. in the dark. The sections were washed in PBS, counterstained with Hoechst dye (0.4 μg/mL) at room temperature for 10 minutes and mounted in Prolong Gold antifade reagent.
The tissues sections processed for apoptosis or immunostained for proliferating cells (Ki-67) or blood vessels were quantitated using Metamorph software. Using 20× objective, 5 different fields from each section, 2 to 4 sections from each tumor, and 3 to 4 tumors from each treatment group or control were used for quantitation. The area of interest was expressed as the percent threshold area of the total area.

A short description of series [3]: Mouse plasma protein binding. In kind it is in vitro ADME. As to conditions: Compound 1.
Series [4] deals with GSK3β (S9). Briefly: Phospho-GSK3Beta (S9) in PC-3 cell lysates, MSD (Compound 2). In kind it is cell-based. The settings on record: Homo sapiens; PC-3, 1 hour; read-out: mTORC2 GSK3β (S9) IC50. The procedure: The direct substrate for mTORC1 was 4E-BP1(T46) and the indirect downstream substrate was S6RP (S235/S236). The direct substrate for mTORC2 was AKT (S473) and the indirect downstream substrates measured were GSK3β(S9) and PRAS40 (T246). Additionally, the phosphorylation status of AKT (T308), a phosphorylation site for PDK1, was monitored. Concentration-response curves were plotted and IC50 values determined. Cells were plated in 96-well flat bottom plates at the required density (PC-3 cells/well) and the cells were allowed to equilibrate at 37° C., 5% CO2 overnight. […] After the incubation period, the culture media was removed carefully with an aspirator. The plate was placed on ice and 50 μL of 1× Tris Lysis Buffer was added to each well. The plate was placed on a shaker at 4° C. for 1 hour to lyse the cells. At that point, the plate was either frozen at -80° C. for later analysis or immediately assayed for phosphoproteins as described below. To monitor interassay variability, a reference standard was included in the assay for PC-3 cells and the coefficient of variation for assay of […]) was 9.3% (n=50) and for assay of p-AKT (S473) was 28.6% (n=50). The assay plate was incubated with 150 μL of MSD Blocking Buffer for 1 hour with shaking at room temperature. […] Then 150 μL of 1×MSD Read Buffer T was added to each well. The plate was read on the SECTOR Imager plate reader.

For series [5], the system named is pS6RP. Briefly: pS6RP in PC3 tumors, MSD (Compound 2). As to conditions: Mus musculus; for inhibition at 0.1 mg/kg: 0.1 mg/kg single oral dose; for inhibition at 0.3 mg/kg: 0.3 mg/kg single oral dose. It counts as in vivo, SCID mice.
[6] abbreviates: 0.5 h, read-out: PD Marker Inhibition (%) pS6RP.
[7] abbreviates: 1 h, read-out: PD Marker Inhibition (%) pS6RP.
Where [8] appears, read: 3 h, read-out: PD Marker Inhibition (%) pS6RP.
Where [9] appears, read: 6 h, read-out: PD Marker Inhibition (%) pS6RP.
[10] abbreviates: 10 h, read-out: PD Marker Inhibition (%) pS6RP.
The mark [11] stands for this setting: 24 h, read-out: PD Marker Inhibition (%) pS6RP.

On to `CO[C@H]1CC[C@H](N2C(=O)CNc3ncc(-c4ccc(C(C)(C)O)nc4)nc32)CC1` [Compound 1, 7-(6-(2-hydroxypropan-2-yl)pyridin-3-yl)-1-((1r,4r)-4-methoxycyclohexyl)-3,4-dihydropyrazino-[2,3-b]pyrazin-2(1H)-one], for which the “change in body weight” value in series [1] (10 mg/kg QD, 3 weeks, data not shown) is reported as “No significant change”. Also, the “loss of initial body mass” value in series [1] (25 mg/kg QD, end of the first cycle) is reported as “approximately 10%”. Besides, the body weight loss result in series [1] (25 mg/kg QD, intermittent dosing study period) was “about 10%”. In series [1] (25 mg/kg QD, second dosing cycle), the body weight change result is “about 5%”. The “loss of initial body weight” value in series [1] (regression study, 25 mg/kg QD, by Day 26, euthanized) is reported as “over 19%”. For the same molecule, the “TUNEL-positive cells compared with the vehicle control” value in series [2] was “about a two fold increase”. The “mouse plasma protein binding” value in series [3] is on record as 88%.
Broadly, the IC50 is the concentration needed to halve the response being measured. As usually defined, the inhibition is the percentage by which the read-out fell short of the control. Turning to `CCN1C(=O)CNc2ncc(-c3ccc(-c4nc[nH]n4)nc3C)nc21` [Compound 2, 1-ethyl-7-(2-methyl-6-(1H-1,2,4-triazol-3-yl)pyridin-3-yl)-3,4-dihydropyrazino[2,3-b]pyrazin-2(1H)-one], the IC50 in series [4] was determined as 17 nM. Moreover, the inhibition at 0.1 mg/kg turned out to be 45.7% in series [5] (setting [6]); 38.2% in series [5] (setting [7]); 27.2% in series [5] (setting [8]); 23.3% in series [5] (setting [9]); 17.6% in series [5] (setting [10]); 0% in series [5] (setting [11]). The inhibition at 0.3 mg/kg stood at 69.8% in series [5] (setting [6]); 79.6% in series [5] (setting [7]); 73.5% in series [5] (setting [8]); 67.3% in series [5] (setting [9]); 57.9% in series [5] (setting [10]); 33.3% in series [5] (setting [11]). Also, the inhibition at 1 mg/kg was about 80% in series [5] (1 mg/kg single dose, through 10 hours, read-out: inhibition of pS6RP in tumor); 84.6% in series [5] (1 mg/kg single oral dose, 1 h, read-out: PD Marker Inhibition (%) pS6RP); 89.5% in series [5] (1 mg/kg single oral dose, 3 h, read-out: PD Marker Inhibition (%) pS6RP); 82.8% in series [5] (1 mg/kg single oral dose, 6 h, read-out: PD Marker Inhibition (%) pS6RP); 78.7% in series [5] (1 mg/kg single oral dose, 10 h, read-out: PD Marker Inhibition (%) pS6RP); 0% in series [5] (1 mg/kg single oral dose, 24 h, read-out: PD Marker Inhibition (%) pS6RP). The inhibition at 10 mg/kg is at least 80% in series [5] (10 mg/kg single dose, through 24 hours, read-out: inhibition of both PD markers (pS6RP, pAKT (S473))); 85.3% in series [5] (10 mg/kg single oral dose, 1 h, read-out: PD Marker Inhibition (%) pS6RP); 91.3% in series [5] (10 mg/kg single oral dose, 3 h, read-out: PD Marker Inhibition (%) pS6RP); 93.5% in series [5] (10 mg/kg single oral dose, 6 h, read-out: PD Marker Inhibition (%) pS6RP); 93.7% in series [5] (10 mg/kg single oral dose, 10 h, read-out: PD Marker Inhibition (%) pS6RP); 93.2% in series [5] (10 mg/kg single oral dose, 24 h, read-out: PD Marker Inhibition (%) pS6RP).
